Numbered stars: 1 amine (or outer) side, 2 acyl side, 3 side chain; on linkers, the order of the positions; unused ones are H or OH. Bridge positions count the residues as written; N and C are the ends. Square brackets hold non-standard residues; d marks the D form. Peptide text beside a SMILES is read from it. * marks the point of attachment. hPhe(3,5-F2-4-CF3) = N[C@@H](CCc1cc(F)c(C(F)(F)F)c(F)c1)C(=O)O; hPhe(3-Cl-4-CF3) = N[C@@H](CCc1ccc(C(F)(F)F)c(Cl)c1)C(=O)O; hPhe(3-F,4-CF3) = N[C@@H](CCc1ccc(C(F)(F)F)c(F)c1)C(=O)O; NMePhe(4-CF3) = CN[C@@H](Cc1ccc(C(F)(F)F)cc1)C(=O)O; hPhe(4-CF3) = N[C@@H](CCc1ccc(C(F)(F)F)cc1)C(=O)O; NMeAbu(4,4,4-F3) = CN[C@@H](CC(F)(F)F)C(=O)O; NMePhe(4-Cl) = CN[C@@H](Cc1ccc(Cl)cc1)C(=O)O; NMePhe(4-Me) = CN[C@@H](Cc1ccc(C)cc1)C(=O)O; NMePhe(3-F) = CN[C@@H](Cc1cccc(F)c1)C(=O)O; NMePhe(4-F) = CN[C@@H](Cc1ccc(F)cc1)C(=O)O; X77 = O=C(CN(CCN1CCC(F)(F)CC1)[*:1])[*:2]; NMeGly(cPent) = CN[C@H](C(=O)O)C1CCCC1; Phe(2-Cl) = N[C@@H](Cc1ccccc1Cl)C(=O)O; Phe(3-I) = N[C@@H](Cc1cccc(I)c1)C(=O)O; NMe3Pal = CN[C@@H](Cc1cccnc1)C(=O)O; NMeCha = CN[C@@H](CC1CCCCC1)C(=O)O; NMeChg = CN[C@H](C(=O)O)C1CCCCC1; NMeI = CC[C@H](C)[C@H](NC)C(=O)O; NMeD = CN[C@@H](CC(=O)O)C(=O)O; NMeL = CN[C@@H](CC(C)C)C(=O)O; NMeV = CN[C@H](C(=O)O)C(C)C; Trifluoroethyl = FC(F)(F)C*; d(β3hA) = C[C@@H](N)CC(=O)O; NMeS = CN[C@@H](CO)C(=O)O; Morpholide = C1CN(*)CCO1; NMeA = CN[C@@H](C)C(=O)O; NMeAib = CNC(C)(C)C(=O)O; Piperidide = C1CCN(*)CC1; Pra = C#CC[C@H](N)C(=O)O; Pyrrolidide = C1CCN(*)C1; dNMeA = CN[C@H](C)C(=O)O; Ac5c = NC1(C(=O)O)CCCC1; Aze = O=C(O)[C@@H]1CCN1; Ac4c = NC1(C(=O)O)CCC1; CH2CMe2OH = CC(C)(O)C*; Aib = CC(C)(N)C(=O)O; Isopentyl = CC(C)CC*; NEtG = CCNCC(=O)O; βAla = NCCC(=O)O; Sar = CNCC(=O)O
Test system: Human pancreatic cancer cell line AsPC-1 (G12D mutation Kras)
Assay: AsPC-1 cell growth inhibition (AsPC-1 CGI)
Type: cell-based
Settings: read-out: AsPC-1 cell growth inhibition, 50% growth inhibitory concentration (IC50 value); 96 hours, CellTiter-Glo, values classified in ranges
Experimental: Test compounds were serially dilated with dimethyl sulfoxide, and 200 nL was then dispensed to a U-bottom 96-well plate using Labcyte Echo. […] The cell suspension was dispensed to a. plate containing a test compound at 100 μL per well and incubated at 37° C. in a 5% carbon dioxide gas incubator. 96 hours later, 80 μL of CellTiter-Glo (Promega) was added to each well and fluorescence was measured.

Structure (SMILES) | IC50 [nM]
CC[C@H](C)[C@@H]1NC(=O)[C@H](C)N(C)C(=O)C[C@@H](C)NC(=O)[C@H](C(C)C)N(C)C(=O)C2(CCCC2)NC(=O)[C@@H]2CCCN2C(=O)[C@H](CCc2ccc(C(F)(F)F)c(Cl)c2)NC(=O)[C@@H](C)N(C)C(=O)[C@H](CC2CCCCC2)N(C)C(=O)[C@@H]2CCCN2C(=O)CN(C)C1=O [Compound 516] (cyclo([Ac5c][NMeV][d(β3hA)][NMeA]I[Sar]P[NMeCha][dNMeA][hPhe(3-Cl-4-CF3)]P)) | > 500
CC(C)C[C@H]1C(=O)N[C@@H](CO)C(=O)N(C)[C@@H](C)C(=O)N2CC[C@H]2C(=O)N(C)[C@@H](CC2CCCCC2)C(=O)N(C)CC(=O)N[C@@H](CCc2ccc(C(F)(F)F)c(Cl)c2)C(=O)N2CCC[C@H]2C(=O)NC2(CCCC2)C(=O)N(C)[C@@H](C(C)C)C(=O)N(C)[C@H](C(=O)N2CCCCC2)CC(=O)N1C [Compound 1768] ([NMeL]S[NMeA][Aze][NMeCha][Sar][hPhe(3-Cl-4-CF3)]P[Ac5c][NMeV][NMeD]-Piperidide; lactam N-11) | > 500
CC[C@H](C)[C@@H]1NC(=O)[C@H](CC(C)C)N(C)C(=O)C[C@@H](C(=O)N2CCCCC2)N(C)C(=O)[C@H](COCC(F)(F)F)N(C)C(=O)C2(CCCC2)NC(=O)[C@@H]2CCCN2C(=O)[C@H](CCc2ccc(C(F)(F)F)c(Cl)c2)NC(=O)CN(C)C(=O)[C@H](CC2CCCCC2)N(C)C(=O)CN(C)C(=O)CN(C)C1=O [Compound 208] ([NMeL]I[Sar][Sar][NMeCha][Sar][hPhe(3-Cl-4-CF3)]P[Ac5c][NMeS](Trifluoroethyl)[NMeD]-Piperidide; lactam N-11) | > 500
CC[C@H](C)[C@@H]1NC(=O)[C@H](CC(C)C)N(C)C(=O)C[C@@H](C(=O)N2CCCCC2)N(C)C(=O)[C@H](CC(C)C)N(C)C(=O)C(C)(C)NC(=O)[C@H](COCC(C)(C)O)N(C)C(=O)[C@H](CCc2ccc(C(F)(F)F)cc2)NC(=O)CN(C)C(=O)[C@H](COCCC(C)C)N(C)C(=O)CN(C)C(=O)CN(CC)C1=O [Compound 1528] ([NMeL]I[NEtG][Sar][NMeS](Isopentyl)[Sar][hPhe(4-CF3)][NMeS](CH2CMe2OH)[Aib][NMeL][NMeD]-Piperidide; lactam N-11) | > 500
CC[C@H](C)[C@@H]1NC(=O)[C@H](CC(C)C)N(C)C(=O)C[C@@H](C(=O)N2CCCCC2)N(C)C(=O)[C@H](CC(C)C)NC(=O)C(C)(C)N(C)C(=O)[C@H](Cc2ccccc2Cl)NC(=O)[C@H](Cc2cccc(I)c2)NC(=O)CN(C)C(=O)[C@H](Cc2ccc(C)cc2)N(C)C(=O)[C@@H]2CCN2C(=O)CN(C)C1=O [Compound 781] ([NMeL]I[Sar][Aze][NMePhe(4-Me)][Sar][Phe(3-I)][Phe(2-Cl)][NMeAib]L[NMeD]-Piperidide; lactam N-11) | > 500
CC[C@H](C)[C@@H]1NC(=O)CCNC(=O)[C@H](Cc2ccc(F)cc2)N(C)C(=O)[C@H](C2CCCCC2)N(C)C(=O)C2(CCCC2)NC(=O)[C@@H]2CCCN2C(=O)[C@H](CCc2ccc(C(F)(F)F)c(Cl)c2)NC(=O)CN(C)C(=O)[C@H](CC2CCCCC2)N(C)C(=O)CN(C)C(=O)CN(C)C1=O [Compound 528] (cyclo([Ac5c][NMeChg][NMePhe(4-F)][βAla]I[Sar][Sar][NMeCha][Sar][hPhe(3-Cl-4-CF3)]P)) | > 500
CC[C@H](C)[C@@H]1NC(=O)[C@H](C)N(C)C(=O)C[C@@H](C(=O)N2CCCC2)N(C)C(=O)[C@H](C(C)C)N(C)C(=O)C2(CCCC2)NC(=O)[C@@H]2CCCN2C(=O)[C@H](CCc2ccc(C(F)(F)F)c(Cl)c2)NC(=O)[C@@H](C)N(C)C(=O)[C@H](CC2CCCCC2)N(C)C(=O)[C@@H]2CCCN2C(=O)CN(C)C1=O [Compound 1715] ([NMeA]I[Sar]P[NMeCha][dNMeA][hPhe(3-Cl-4-CF3)]P[Ac5c][NMeV][NMeD]-Pyrrolidide; lactam N-11) | > 500
CC[C@H](C)[C@@H]1NC(=O)[C@H](CC(C)C)N(C)C(=O)C[C@@H](C(=O)N2CCOCC2)N(C)C(=O)[C@H]([C@@H](C)CC)N(C)C(=O)C2(CCCC2)NC(=O)[C@@H]2CCCN2C(=O)[C@H](CCc2ccc(C(F)(F)F)c(Cl)c2)NC(=O)CN(C)C(=O)[C@H](CC2CCCCC2)N(C)C(=O)CN(C)C(=O)CN(C)C1=O [Compound 1979] ([NMeL]I[Sar][Sar][NMeCha][Sar][hPhe(3-Cl-4-CF3)]P[Ac5c][NMeI][NMeD]-Morpholide; lactam N-11) | ≤ 20
CC[C@H](C)[C@@H]1NC(=O)[C@H](CC(C)C)N(C)C(=O)C[C@@H](C)NC(=O)[C@H](C(C)C)N(C)C(=O)C2(CCCC2)NC(=O)[C@@H]2CCCN2C(=O)[C@H](CCc2ccc(C(F)(F)F)c(Cl)c2)NC(=O)CN(C)C(=O)[C@H](Cc2cccc(F)c2)N(C)C(=O)CN(C)C(=O)CN(C)C1=O [Compound 1556] (cyclo([Ac5c][NMeV][d(β3hA)][NMeL]I[Sar][Sar][NMePhe(3-F)][Sar][hPhe(3-Cl-4-CF3)]P)) | > 500
CC[C@H](C)[C@@H]1NC(=O)[C@H](CC(C)C)N(C)C(=O)C[C@@H](C)NC(=O)[C@H](C(C)C)N(C)C(=O)C2(CCCC2)NC(=O)[C@@H]2CCCN2C(=O)[C@H](CCc2ccc(C(F)(F)F)c(Cl)c2)NC(=O)CN(C)C(=O)[C@H](CC2CCCCC2)N(C)C(=O)CN(C)C(=O)CN(CCN2CCC(F)(F)CC2)C1=O [Compound 635] (cyclo([Ac5c][NMeV][d(β3hA)][NMeL]I[X77][Sar][NMeCha][Sar][hPhe(3-Cl-4-CF3)]P)) | > 500
CC[C@H](C)[C@@H]1NC(=O)[C@H](CC(C)C)N(C)C(=O)C[C@@H](C(=O)N(C)C)N(C)C(=O)[C@H](C2CCCC2)N(C)C(=O)[C@H](C)NC(=O)[C@@H](C)NC(=O)[C@H](CCc2ccc(C(F)(F)F)c(Cl)c2)NC(=O)CN(C)C(=O)[C@H](CC2CCCCC2)N(C)C(=O)[C@@H]2CCN2C(=O)[C@H](C)N(C)C1=O [Compound 736] ([NMeL]I[NMeA][Aze][NMeCha][Sar][hPhe(3-Cl-4-CF3)][dA]A[NMeGly(cPent)][NMeD]-NMe2; lactam N-11) | > 500
CC[C@H](C)[C@@H]1NC(=O)[C@H](CC(F)(F)F)N(C)C(=O)C[C@@H](C(=O)N2CCCC2)N(C)C(=O)[C@H](C2CCCCC2)N(C)C(=O)C2(CCCC2)NC(=O)[C@@H]2CCCN2C(=O)[C@H](CCc2cc(F)c(C(F)(F)F)c(F)c2)NC(=O)CN(C)C(=O)[C@H](Cc2ccc(C(F)(F)F)cc2)N(C)C(=O)CN(C)C(=O)CN(C)C1=O [Compound 1244] ([NMeAbu(4,4,4-F3)]I[Sar][Sar][NMePhe(4-CF3)][Sar][hPhe(3,5-F2-4-CF3)]P[Ac5c][NMeChg][NMeD]-Pyrrolidide; lactam N-11) | ≤ 20
CC[C@H](C)[C@@H]1NC(=O)[C@H](C)N(C)C(=O)C[C@@H](C(=O)N2CCCC2)N(C)C(=O)[C@H](C2CCCCC2)N(C)C(=O)C2(CCCC2)NC(=O)[C@H](Cc2cccnc2)N(C)C(=O)[C@H](CCc2ccc(C(F)(F)F)c(Cl)c2)NC(=O)CN(C)C(=O)[C@H](CC2CCCCC2)N(C)C(=O)CN(C)C(=O)CN(C)C1=O [Compound 1834] ([NMeA]I[Sar][Sar][NMeCha][Sar][hPhe(3-Cl-4-CF3)][NMe3Pal][Ac5c][NMeChg][NMeD]-Pyrrolidide; lactam N-11) | > 500
CC[C@H](C)[C@@H]1NC(=O)[C@H](CC(C)C)N(C)C(=O)C[C@@H](C(=O)N2CCCC2)N(C)C(=O)[C@H](C2CCCCC2)N(C)C(=O)C2(CCC2)NC(=O)[C@@H]2CCCN2C(=O)[C@H](CCc2ccc(C(F)(F)F)c(Cl)c2)NC(=O)CN(C)C(=O)[C@H](CC2CCCCC2)N(C)C(=O)CN(C)C(=O)CN(C)C1=O [Compound 1894] ([NMeL]I[Sar][Sar][NMeCha][Sar][hPhe(3-Cl-4-CF3)]P[Ac4c][NMeChg][NMeD]-Pyrrolidide; lactam N-11) | ≤ 20
CC[C@H](C)[C@@H]1NC(=O)[C@H](C(C)C)N(C)C(=O)C[C@@H](C)NC(=O)[C@H](CC(C)C)N(C)C(=O)C2(CCCC2)NC(=O)[C@H](CC(C)C)N(C)C(=O)[C@H](CCc2ccc(C(F)(F)F)c(F)c2)NC(=O)CN(C)C(=O)[C@H](Cc2ccc(Cl)cc2)N(C)C(=O)CN(C)C(=O)CN(C)C1=O [Compound 851] (cyclo([Ac5c][NMeL][d(β3hA)][NMeV]I[Sar][Sar][NMePhe(4-Cl)][Sar][hPhe(3-F,4-CF3)][NMeL])) | > 500
C#CC[C@@H]1NC(=O)[C@H](Cc2cccc(I)c2)NC(=O)CN(C)C(=O)[C@H](Cc2ccc(C(F)(F)F)cc2)N(C)C(=O)[C@@H]2CCN2C(=O)CN(C)C(=O)[C@H]([C@@H](C)CC)NC(=O)[C@H](CC(C)C)N(C)C(=O)C[C@@H](C(=O)N2CCCCC2)N(C)C(=O)[C@H](CC(C)C)NC(=O)C(C)(C)N(C)C1=O [Compound 1425] ([NMeL]I[Sar][Aze][NMePhe(4-CF3)][Sar][Phe(3-I)][Pra][NMeAib]L[NMeD]-Piperidide; lactam N-11) | > 500
CC[C@H](C)[C@@H]1NC(=O)[C@H](CC(C)C)N(C)C(=O)C[C@@H](C(=O)N(C)C)N(C)C(=O)[C@H](C2CCCC2)N(C)C(=O)[C@H](C(C)C)NC(=O)[C@H](C)N(C)C(=O)[C@H](CCc2ccc(C(F)(F)F)c(Cl)c2)NC(=O)CN(C)C(=O)[C@H](CC2CCCCC2)N(C)C(=O)[C@@H]2CCN2C(=O)[C@H](C)N(C)C1=O [Compound 102] ([NMeL]I[NMeA][Aze][NMeCha][Sar][hPhe(3-Cl-4-CF3)][NMeA]V[NMeGly(cPent)][NMeD]-NMe2; lactam N-11) | > 500
CC[C@H](C)[C@@H]1NC(=O)[C@H](CC(C)C)N(C)C(=O)C[C@@H](C(=O)N(C)C)N(C)C(=O)[C@H](C2CCCC2)N(C)C(=O)[C@H](C)NC(=O)[C@H](C)N(C)C(=O)[C@H](CCc2ccc(C(F)(F)F)c(Cl)c2)NC(=O)CN(C)C(=O)[C@H](CC2CCCCC2)N(C)C(=O)[C@@H]2CCN2C(=O)[C@H](C)N(C)C1=O [Compound 993] ([NMeL]I[NMeA][Aze][NMeCha][Sar][hPhe(3-Cl-4-CF3)][NMeA]A[NMeGly(cPent)][NMeD]-NMe2; lactam N-11) | > 500

— patent US20240148821A1, “PHARMACEUTICAL USE OF CYCLIC PEPTIDE COMPOUND” (CHUGAI SEIYAKU KABUSHIKI KAISHA, priority 2021, published 2024)
